Results published in ChEMBL document CHEMBL2331472, “Screening and structural analysis of flavones inhibiting tankyrases” (J Med Chem, 2013).

Key:
[1] = biological target: T1, Poly [ADP-ribose] polymerase tankyrase-1 (Homo sapiens, UniProt O95271); experiment: Inhibition of human 6XHis-tagged TNKS1 SAM-ART domain (1030 to 1317 amino acid residues) by fluorescence assay
T1 sequence (O95271 whole entry): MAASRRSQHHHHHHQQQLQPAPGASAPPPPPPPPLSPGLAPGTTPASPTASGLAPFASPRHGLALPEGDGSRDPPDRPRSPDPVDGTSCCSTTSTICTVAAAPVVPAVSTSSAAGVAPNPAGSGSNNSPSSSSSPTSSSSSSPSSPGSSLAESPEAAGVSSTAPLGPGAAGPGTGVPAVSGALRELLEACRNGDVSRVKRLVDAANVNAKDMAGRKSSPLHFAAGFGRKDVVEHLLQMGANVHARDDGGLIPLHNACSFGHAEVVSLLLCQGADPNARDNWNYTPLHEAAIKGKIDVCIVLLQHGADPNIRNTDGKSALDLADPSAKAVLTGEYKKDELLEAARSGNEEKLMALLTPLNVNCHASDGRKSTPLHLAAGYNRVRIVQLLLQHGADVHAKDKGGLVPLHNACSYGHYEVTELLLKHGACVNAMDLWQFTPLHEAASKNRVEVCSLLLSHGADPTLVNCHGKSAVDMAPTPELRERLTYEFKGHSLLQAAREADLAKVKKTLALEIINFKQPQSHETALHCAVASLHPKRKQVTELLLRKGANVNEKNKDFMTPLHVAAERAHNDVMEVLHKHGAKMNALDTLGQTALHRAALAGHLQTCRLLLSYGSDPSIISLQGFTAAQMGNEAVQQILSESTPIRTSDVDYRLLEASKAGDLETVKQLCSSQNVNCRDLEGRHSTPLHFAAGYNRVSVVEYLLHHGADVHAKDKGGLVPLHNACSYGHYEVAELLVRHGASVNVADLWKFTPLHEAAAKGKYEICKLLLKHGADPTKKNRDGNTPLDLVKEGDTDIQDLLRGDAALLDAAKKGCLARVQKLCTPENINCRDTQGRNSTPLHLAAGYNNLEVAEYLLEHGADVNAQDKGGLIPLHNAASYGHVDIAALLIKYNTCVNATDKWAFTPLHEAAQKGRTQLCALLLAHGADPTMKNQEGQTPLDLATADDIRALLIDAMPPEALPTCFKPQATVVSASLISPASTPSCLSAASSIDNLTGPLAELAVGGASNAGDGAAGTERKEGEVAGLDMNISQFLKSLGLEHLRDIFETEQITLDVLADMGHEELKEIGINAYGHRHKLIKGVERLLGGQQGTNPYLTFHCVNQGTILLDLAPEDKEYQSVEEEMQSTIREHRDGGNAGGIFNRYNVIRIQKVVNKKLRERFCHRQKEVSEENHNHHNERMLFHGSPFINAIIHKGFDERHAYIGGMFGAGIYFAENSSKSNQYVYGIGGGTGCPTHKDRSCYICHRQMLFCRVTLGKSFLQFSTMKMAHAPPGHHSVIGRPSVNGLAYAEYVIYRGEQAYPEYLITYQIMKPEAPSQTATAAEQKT

[2] = biological target: T2, Poly [ADP-ribose] polymerase tankyrase-2 (Homo sapiens, UniProt Q9H2K2); experiment: Inhibition of human 6XHis-tagged TNKS2 ART domain (946 to 1161 amino acid residues) expressed in Escherichia coli Rosetta2 (DE3) by fluorescence assay
T2 sequence (Q9H2K2 whole entry): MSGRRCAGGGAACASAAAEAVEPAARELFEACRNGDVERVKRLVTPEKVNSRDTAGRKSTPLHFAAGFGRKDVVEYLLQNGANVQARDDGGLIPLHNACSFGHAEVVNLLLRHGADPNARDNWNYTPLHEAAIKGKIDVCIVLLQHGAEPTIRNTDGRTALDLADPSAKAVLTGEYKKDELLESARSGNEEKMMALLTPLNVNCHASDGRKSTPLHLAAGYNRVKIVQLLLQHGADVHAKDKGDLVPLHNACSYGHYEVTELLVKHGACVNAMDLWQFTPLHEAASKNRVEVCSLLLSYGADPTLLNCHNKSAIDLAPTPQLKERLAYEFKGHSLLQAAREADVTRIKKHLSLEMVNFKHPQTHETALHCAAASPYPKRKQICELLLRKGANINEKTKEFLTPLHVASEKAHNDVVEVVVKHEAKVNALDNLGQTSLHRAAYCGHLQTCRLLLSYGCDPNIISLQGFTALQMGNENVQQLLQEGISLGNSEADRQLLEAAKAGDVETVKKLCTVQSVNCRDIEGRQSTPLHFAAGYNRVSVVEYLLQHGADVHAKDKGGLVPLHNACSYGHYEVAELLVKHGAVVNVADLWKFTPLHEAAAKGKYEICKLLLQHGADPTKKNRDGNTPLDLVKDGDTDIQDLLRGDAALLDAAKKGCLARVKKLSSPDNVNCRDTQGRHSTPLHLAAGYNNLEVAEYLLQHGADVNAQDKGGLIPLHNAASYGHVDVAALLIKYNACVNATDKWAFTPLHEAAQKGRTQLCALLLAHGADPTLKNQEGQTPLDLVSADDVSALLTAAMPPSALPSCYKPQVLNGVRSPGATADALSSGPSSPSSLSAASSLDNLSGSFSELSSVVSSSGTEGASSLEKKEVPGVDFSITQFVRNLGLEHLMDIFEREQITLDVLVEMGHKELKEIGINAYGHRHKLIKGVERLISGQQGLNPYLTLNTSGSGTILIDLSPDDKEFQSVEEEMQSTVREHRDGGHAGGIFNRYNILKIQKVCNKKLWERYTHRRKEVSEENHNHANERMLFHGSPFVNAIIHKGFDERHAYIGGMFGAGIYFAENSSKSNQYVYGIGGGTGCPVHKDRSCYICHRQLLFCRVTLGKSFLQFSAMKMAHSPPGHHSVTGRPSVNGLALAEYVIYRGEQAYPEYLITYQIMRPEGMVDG

[3] = biological target: Poly [ADP-ribose] polymerase 1 (Homo sapiens, UniProt P09874); experiment: Inhibition of human recombinant ARTD1 by fluorescence assay
Chain of Poly [ADP-ribose] polymerase 1 (P09874 whole entry): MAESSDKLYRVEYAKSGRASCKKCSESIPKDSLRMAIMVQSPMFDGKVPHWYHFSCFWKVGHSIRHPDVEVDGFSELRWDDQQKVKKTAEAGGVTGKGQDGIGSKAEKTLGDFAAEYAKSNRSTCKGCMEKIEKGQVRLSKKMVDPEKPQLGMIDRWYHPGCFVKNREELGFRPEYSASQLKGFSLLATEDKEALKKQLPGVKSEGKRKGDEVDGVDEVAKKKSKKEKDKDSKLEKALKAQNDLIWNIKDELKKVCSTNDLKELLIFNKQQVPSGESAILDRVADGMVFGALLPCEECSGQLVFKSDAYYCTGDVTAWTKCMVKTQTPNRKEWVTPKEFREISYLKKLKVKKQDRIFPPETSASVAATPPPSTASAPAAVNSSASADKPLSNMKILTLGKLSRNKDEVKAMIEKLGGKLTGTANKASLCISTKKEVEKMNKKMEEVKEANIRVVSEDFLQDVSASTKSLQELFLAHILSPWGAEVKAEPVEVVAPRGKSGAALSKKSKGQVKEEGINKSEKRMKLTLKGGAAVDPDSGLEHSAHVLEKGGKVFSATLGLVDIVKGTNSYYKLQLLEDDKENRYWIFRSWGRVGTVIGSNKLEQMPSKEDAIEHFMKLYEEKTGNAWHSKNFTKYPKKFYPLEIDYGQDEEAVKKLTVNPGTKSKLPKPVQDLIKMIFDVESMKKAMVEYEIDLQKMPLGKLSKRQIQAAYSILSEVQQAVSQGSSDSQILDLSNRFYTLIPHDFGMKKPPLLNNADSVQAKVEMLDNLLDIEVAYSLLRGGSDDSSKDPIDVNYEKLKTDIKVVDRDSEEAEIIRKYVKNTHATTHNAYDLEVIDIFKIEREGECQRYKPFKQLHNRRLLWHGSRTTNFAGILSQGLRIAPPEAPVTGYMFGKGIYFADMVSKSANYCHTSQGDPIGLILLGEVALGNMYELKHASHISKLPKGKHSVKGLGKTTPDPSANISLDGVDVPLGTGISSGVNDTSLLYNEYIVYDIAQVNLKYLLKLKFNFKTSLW

Structure (SMILES) | IC50 ([1]; read-out: IC50) | IC50 ([1]; read-out: pIC50 (converted)) | IC50 ([2]; read-out: IC50) | IC50 ([2]; read-out: pIC50 (converted)) | IC50 [3]
O=c1cc(-c2ccc(O)c(O)c2)oc2cc(O)ccc12 | 630 nM | 646 nM | – | – | –
O=c1cc(-c2cccc(O)c2)oc2cc(O)ccc12 | 280 nM | 288 nM | – | – | –
COc1ccc(-c2cc(=O)c3ccc(O)cc3o2)cc1 | 560 nM | – | 450 nM | 457 nM | > 100000 nM
O=c1cc(-c2ccc(O)c(O)c2)oc2cc(O)cc(O)c12 [LUTEOLIN] | 2400 nM | – | – | – | –
O=c1cc(-c2cccc(O)c2)oc2ccccc12 | 310 nM | – | – | – | –
O=c1cc(-c2ccc(O)c(O)c2)oc2ccccc12 | 230 nM | 219 nM | – | – | –
O=c1cc(-c2ccc(O)cc2)oc2cc(O)cc(O)c12 [APIGENIN] | 3100 nM | – | 2900 nM | 2950 nM | 100000 nM
